# According to patent US5385842A, “Anthraquinones as inhibitors of sulfide production from sulfate-reducing bacteria” (E. I. Du Pont de Nemours and Company, priority 1993, dated 1995):
# Structures can show the parent of a compound that is named as a salt.
# Tested on: Desulfovibrio desulfuricans G100A
# Experiment: microbe, parasite or virus in culture
# Format: cell-based
# Settings: Desulfovibrio desulfuricans, G100A, read-out: % Inhib. (inhibition of sulfide production)
Compound,inhibition at 10 ppm,inhibition at 30 ppm,inhibition at 10 µg/mL
"Nc1cc(S(=O)(=O)O)c(O)c2c1C(=O)c1c(O)c(S(=O)(=O)O)cc(N)c1C2=O [Acid blue 45, 4,8-Diamino-9,10-dihydro-1,5-dihydroxy-9,10-dioxo-2,6-anthracenedisulfonic acid, di Na salt]",0%,–,–
"Cc1cc(C)c(S(=O)(=O)O)c(C)c1Nc1ccc(Nc2c(C)cc(C)c(S(=O)(=O)O)c2C)c2c1C(=O)c1ccccc1C2=O [Acid blue 80, 3,3'-[(9,10-Dihydro-9,10-dioxo-1,4-anthracenediyl)adiimino]bis[2,4,6-trimethylbenzenesulfonicacid], di Na salt]",0%,–,–
"C=CS(=O)(=O)c1cccc(Nc2cc(S(=O)(=O)O)c(N)c3c2C(=O)c2ccccc2C3=O)c1 [Acid blue 215, 1-Amino-4-[[3-(ethenylsulfonyl)phenyl]-9,10-dihydro-9,10-dioxo]-2-anthracene sulfonic acid, monosodium salt]",19.7%,–,–
"Cc1ccc(Nc2ccc(Nc3ccc(C)cc3S(=O)(=O)O)c3c2C(=O)c2ccccc2C3=O)c(S(=O)(=O)O)c1 [Acid green 25, 2,2'-[(9,10-Dihydro-9,10-dioxo-1,4-anthracenediyl)-diimino]bis[5-methylbenzenesulfonic acid],di Na salt]",38.8%,–,–
"CCCCc1ccc(Nc2ccc(Nc3ccc(CCCC)cc3S(=O)(=O)O)c3c2C(=O)c2ccccc2C3=O)c(S(=O)(=O)O)c1 [Acid green 27, 2,2'-[(9,10-Dihydro-9,10-dioxo-1,4-anthracenediyl)-diimino]bis[5-butylbenzenesulfonic acid]]",16.5%,–,–
"Cc1ccc(Nc2ccc(Nc3ccc(C)cc3S(=O)(=O)O)c3c2C(=O)c2c(O)ccc(O)c2C3=O)c(S(=O)(=O)O)c1 [Acid green 41, 2,2'-[(9,10-Dihydro-5,8-dihydroxy-9,10-dioxo-1,4-anthracendiyl)diimino]bis[5-methylbenzenesulfonic acid], di Na salt]",17.8%,–,–
"O=C(O)c1ccccc1Nc1cccc2c1C(=O)c1cccc(Nc3ccccc3C(=O)O)c1C2=O [Acridylic acid, 1,5-Bis(2-carboxyanilino)-9,10-anthracenedione]",33.5%,–,–
"COc1cccc2c1C(=O)c1c(O)c3c(c(O)c1C2=O)C[C@@](O)(C(=O)CO)C[C@@H]3O[C@H]1C[C@H](N)[C@H](O)[C@H](C)O1 [Adriamycin hydrochloride, 10-[(3-Amino-2,3,6-trideoxy-alpha-L-lyxo-hexopyranosyl)oxy]-7,8,9,10-tetrahydro-6,8,11-trihydroxy-8-(hydroxyacetyl)-1-methoxy-5,12-naphthacenedione hydrochloride, reference compound]",–,55.7%,–
"O=C1c2ccccc2C(=O)c2c(Nc3ccc(S(=O)(=O)O)cc3)c(Nc3ccc(S(=O)(=O)O)cc3)cc(O)c21 [Alizarin blue black B, 1,2-Bis[(4-sulfophenyl)amino]-4-hydroxy-anthraquinone]",17.5%,–,–
"O=C(O)CN(CC(=O)O)Cc1cc2c(c(O)c1O)C(=O)c1ccccc1C2=O [Alizarin complexone dehydrate, (3,4-dihydroxy-2-anthraquinonyl)-methyliminodiacetic acid]",–,14.3%,–
"O=C1c2c(O)ccc(O)c2C(=O)c2c(O)c(O)c(O)c(O)c21 [Alizarin cyanin, 1,2,3,4,5,8-Hexahydroxyanthraquinone]",40.6%,–,–
"O=C1c2ccccc2C(=O)c2c1cc(S(=O)(=O)O)c(O)c2O [Alizarin red S monohydrate, 3,4-Dihydroxy-9,10-dioxo-2-anthracenesulfonic acid]",0%,–,–
"O=C1c2ccc(O)cc2C(=O)c2c1cc(S(=O)(=O)O)c(O)c2O [Alizarin rubinol, 9,10-Dihydro-3,4,6-trihydroxy-9,10-dioxo-2-anthracenesulfonic acid]",–,0%,–
"Cc1ccc(Nc2cccc3c2C(=O)c2cccc(Nc4ccc(C)cc4S(=O)(=O)O)c2C3=O)c(S(=O)(=O)O)c1 [Alizarin violet 3R, 2,2'-[(9,10-Dihydro-9,10-dioxo-1,5-anthracenediyl)-diimino]bis[5-methylbenzenesulfonic acid], di Na salt]",30.9%,–,–
"O=C1c2ccc(O)c(O)c2C(=O)c2cccc(S(=O)(=O)O)c21 [Alizarin-5-sulfonic acid, 9,10-Dihydro-5,6-dihydroxy-9,10-dioxo-1-anthracenesulfonic acid]",–,7.1%,–
"CNc1ccc(Nc2ccc(C)cc2S(=O)(=O)O)c2c1C(=O)c1ccccc1C2=O [Alizarine astrol B-CF, 2-[[9,10-Dihydro-4-(methylamino)-9,10-dioxo-1-anthracenyl]amino]-5-methyl-benzenesulfonic acid, monosodium salt]",2.6%,–,–
"O=C1c2cccc(O)c2C(=O)c2c(O)cc(CO)cc21 [Aloe-emodin, 1,8-Dihydroxy-3-(hydroxymethyl)-anthraquinone]",43.8%,–,–
"O=C1c2ccccc2C(=O)c2c1cc(O)c(O)c2O [Anthragallol, 1,2,3-trihydroxyanthraquinone]",–,2.6%,–
"O=C1c2ccc(O)cc2C(=O)c2c1ccc(O)c2O [Anthrapurpurin, 1,2,7-Trihydroxyanthraquinone]",37.5%,–,–
"O=C1c2cccc(S(=O)(=O)O)c2C(=O)c2cccc(S(=O)(=O)O)c21 [Anthraquinone-1,5-disulfonic acid di Na salt hydrate]",17.5%,–,–
"O=C1c2ccc(S(=O)(=O)O)cc2C(=O)c2ccc(S(=O)(=O)O)cc21 [Anthraquinone-2,6-disulfonic acid di Na salt]",9.8%,–,–
O=C(O)c1ccc2c(c1)C(=O)c1ccccc1C2=O [Anthraquinone-2-carboxylic acid],–,–,22.6%

Compound,inhibition at 10 ppm,inhibition at 30 ppm,inhibition at 10 µg/mL
O=C1c2ccccc2C(=O)c2cc(S(=O)(=O)O)ccc21 [Anthraquinone-2-sulfonic acid sodium salt monohydrate],17%,–,–
O=C1c2ccccc2C(=O)c2ccccc21 [Anthraquinone],37.5%,–,–
"Oc1ccc2c(O)c3ccccc3cc2c1O [Anthrarobin, 1,2,10-Anthracenetriol]",44.4%,–,–
"CN(C)Cc1ccc(Nc2ccc(N)c3c2C(=O)c2ccccc2C3=O)cc1 [Basic Blue 47, 1-Amino-4-[4-[(dimethylamino)methyl]phenyl]amino-9,10-anthracenedione]",37.2%,–,–
"O=C1c2ccccc2C(=O)c2c1ccc1ccccc21 [Benz[a]anthracene-7,12-dione]",–,52.9%,–
"Cc1c(C(=O)O)c(O)cc2c1C(=O)c1c(O)c([C@@H]3O[C@H](CO)[C@@H](O)[C@H](O)[C@H]3O)c(O)c(O)c1C2=O [Carminic acid, 7-β-D-Glucopyranosyl-9,10-dihydro-3,5,6,8-tetra-hydroxy-1-methyl-9,10-dioxo-2-anthracene-carboxylic acid]",–,–,0%
"Cc1cc(O)c2c(c1O)C(=O)c1cc(O)cc(O)c1C2=O [Catenarin, 1,4,5,7-Tetrahydroxy-2-methyl-9,10-anthracenedione]",37.5%,–,–
"Cc1cc(O)c2c(c1)C(=O)c1cccc(O)c1C2=O [Chrysophanic acid, 1,8-Dihydroxy-3-methylanthraquinone]",–,27.9%,–
"Cc1cc(O)c2c(c1O)C(=O)c1c(O)ccc(O)c1C2=O [Cynodontin, 1,4,5,8-Tetrahydroxy-2-methyl-9,10-anthracenedione]",34.4%,–,–
"COc1cccc2c1C(=O)c1c(O)c3c(c(O)c1C2=O)C[C@@](O)(C(C)=O)C[C@@H]3O[C@H]1C[C@H](N)[C@H](O)[C@H](C)O1 [Daunomycin hydrochloride, (8S-cis)-8-Acetyl-10[(3-amino-2,3,6-trideoxy-alpha-L-lyxo-hexopyranosyl)oxy]-7,8,9,10-tetrahydro-6,8,11-trihydroxy-1-methoxy-5,12-naphthacenedione hydrochloride, reference compound]",–,62.9%,–
"O=C1c2ccccc2C(=O)c2c(Nc3cccc4c3C(=O)c3ccccc3C4=O)cccc21 [Dianthrimide, 1,1'-Iminobis-9,10-anthracenedione]",–,2.6%,–
"Nc1ccc(N)c2c1C(=O)c1c(N)ccc(N)c1C2=O [Disperse blue 1, 1,4,5,8-Tetraaminoanthraquinone]",–,3.9%,–
"CNc1ccc(NCCO)c2c1C(=O)c1ccccc1C2=O [Disperse blue 3, 1-(2-Hydroxyethyl)amino-4-methylaminoanthraquinone]",–,6.4%,–
"Cc1ccc2c(c1N)C(=O)c1ccccc1C2=O [Disperse orange 11, 1-Amino-2-methylanthraquinone]",–,5.2%,–
"COc1cc(N)c2c(c1N)C(=O)c1ccccc1C2=O [Disperse red 11, 1,4-Diamino-2-methoxyanthraquinone]",–,0%,–
"Cc1cc(O)c2c(c1)C(=O)c1cc(O)cc(O)c1C2=O [Emodin, 6-Methyl-1,3,8-trihydroxyanthraquinone]",–,2.6%,–
"Cc1cc(O)c2c(c1)C(=O)c1cc(O[C@@H]3OC[C@](O)(CO)[C@H]3O)cc(O)c1C2=O [Frangulin B, 3-(D-apio-beta-D-Furanosyloxy)-1,8-dihydroxy-6-methyl-9,10-anthracenedione]",–,57.1%,–
"Cc1cc(O)c2c(c1)C(=O)c1c(O)ccc(O)c1C2=O [Helminthosporin, 1,5,8-Trihydroxy-3-methyl-9,10-anthracenedione]",31.3%,–,–
"O=C1c2ccc3nc(-c4ccccc4)sc3c2C(=O)c2ccc3nc(-c4ccccc4)sc3c21 [Indanthrene yellow GCN, 2,8-Diphenyl-anthra[2,1-d:6,5-d']bisthiazole-6,12-dione]",15.6%,–,–
"Cc1cc(O)c2c(c1O)C(=O)c1cccc(O)c1C2=O [Islandicin, 1,4,5-Trihydroxy-2-methyl-9,10-anthracenedione]",50%,–,–
"COc1cc(NS(=O)(=O)c2ccc(C)cc2)c2c(c1N)C(=O)c1ccccc1C2=O [N-(4-Amino-9,10-dihydro-3-methoxy-9,10-dioxo-1-anthracenyl)-4-methylbenzenesulfonamide]",–,4.3%,–
"O=C1c2ccccc2C(=O)c2cc(S(=O)(=O)NCc3ccccc3)ccc21 [N-Benzyl-9,10-dihydro-9,10-dioxo-2-anthracenesulfonamide]",–,3.9%,–
